Test system: Escherichia coli
Test: Antibacterial activity against Escherichia coli ATCC 25922 at 50 ug/disk by agar diffusion assay
Format: functional
Conditions: read-out: IZ

## C[n+]1cc2[nH]c3ccccc3c2cc1C(=O)[O-]
  zone of inhibition at 50 µg/disc: 11 mm

— ChEMBL document CHEMBL1141849, “A beta-carboline alkaloid from the soft coral lignopsis spongiosum” (1999)
